Consider 20 molecules from PMC8188608 (Chemical Science, 2021).

≈ marks a conversion by molar mass, not a printed value. Where only a bound is given, the exact number is not on record here.

The target of one data set is mtDXPS (Mycobacterium tuberculosis, UniProt P9WNS3). Kind of data set: biochemical. The following applies: for inhibition at 200 µM / inhibition at 120 µM: read-out: inhib. (%) mtDXPS; for inhib. (%) mtDXPS: at 120 μM (Table 3: concentration only given).
Data set [1] concerns the target T1, drDXPS (Deinococcus radiodurans, UniProt Q9RUB5). Kind of data set: biochemical. The following applies: for IC50: IC50 drDXPS.
For the next data set, the system named is E. coli TolC. Kind of data set: microbe, parasite or virus in culture. In kind it is cell-based. Particulars: for inhibition at 50 µM / MIC: Escherichia coli; for inhibition at 50 µM: read-out: inhib. (%) growth inhibition of E. coli TolC; for MIC: read-out: MIC E. coli TolC.
In data set [2] the target is T1, drDXPS. Kind of data set: biochemical. Particulars: for inhibition at 120 µM: read-out: inhib. (%) drDXPS, at 120 μM.
The next data set deals with M. tuberculosis H37Rv. As to the kind of experiment: microbe, parasite or virus in culture. In kind it is cell-based, Mycobacterium tuberculosis. The following applies: for anti-TB activity, head-to-head comparative analysis: 16 μM, 14 compounds tested; for MIC: Mycobacterium tuberculosis, H37RV, read-out: MIC M. tuberculosis.
Data set [3] is classed as physicochemical. The following applies: when added at higher concentrations.
Data set [4] concerns the target T1, drDXPS. It counts as binding.

T1 sequence (Q9RUB5 whole entry): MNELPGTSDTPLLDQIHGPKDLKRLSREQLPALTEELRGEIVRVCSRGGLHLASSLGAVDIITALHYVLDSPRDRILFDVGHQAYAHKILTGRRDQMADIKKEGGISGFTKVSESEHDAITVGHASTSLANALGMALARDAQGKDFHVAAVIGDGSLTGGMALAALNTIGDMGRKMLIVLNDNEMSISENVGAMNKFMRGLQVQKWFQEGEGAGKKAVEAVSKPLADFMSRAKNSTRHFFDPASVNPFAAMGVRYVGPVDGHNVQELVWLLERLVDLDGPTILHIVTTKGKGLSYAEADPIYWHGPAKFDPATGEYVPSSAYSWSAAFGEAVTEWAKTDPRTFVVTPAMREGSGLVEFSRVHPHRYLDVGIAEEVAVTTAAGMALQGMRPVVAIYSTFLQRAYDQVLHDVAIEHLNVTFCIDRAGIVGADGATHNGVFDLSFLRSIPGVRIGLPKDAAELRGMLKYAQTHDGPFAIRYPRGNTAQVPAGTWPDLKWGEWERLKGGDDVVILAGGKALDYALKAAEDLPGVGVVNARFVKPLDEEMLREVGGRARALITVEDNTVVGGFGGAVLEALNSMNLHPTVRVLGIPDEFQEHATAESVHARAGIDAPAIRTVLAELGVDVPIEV
Sequence of mtDXPS (P9WNS3 whole entry): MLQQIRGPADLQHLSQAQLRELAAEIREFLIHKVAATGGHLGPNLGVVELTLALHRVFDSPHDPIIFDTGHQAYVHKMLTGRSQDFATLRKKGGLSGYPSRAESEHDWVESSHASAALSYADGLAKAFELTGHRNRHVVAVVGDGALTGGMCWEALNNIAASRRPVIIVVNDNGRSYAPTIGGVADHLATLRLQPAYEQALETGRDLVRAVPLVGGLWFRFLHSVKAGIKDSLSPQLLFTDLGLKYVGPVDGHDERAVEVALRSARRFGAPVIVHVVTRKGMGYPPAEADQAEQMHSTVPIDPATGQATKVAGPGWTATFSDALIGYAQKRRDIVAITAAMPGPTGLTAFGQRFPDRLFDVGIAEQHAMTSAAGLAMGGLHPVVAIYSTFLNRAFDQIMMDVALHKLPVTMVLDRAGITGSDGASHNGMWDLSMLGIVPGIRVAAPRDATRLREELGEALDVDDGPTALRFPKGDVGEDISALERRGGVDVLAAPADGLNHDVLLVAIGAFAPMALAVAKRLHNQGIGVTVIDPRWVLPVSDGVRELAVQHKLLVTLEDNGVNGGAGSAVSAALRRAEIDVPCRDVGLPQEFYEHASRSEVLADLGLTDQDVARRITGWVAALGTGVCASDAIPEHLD

For `O=C(N/N=C/c1ccc(C(F)(F)F)nc1)c1cc2c(s1)CCCC2` [Compound 1, (E)-N'-((6-(Trifluoromethyl)pyridin-3-yl)methylene)-4,5,6,7-tetrahydrobenzo[b]thiophene-2-carbohydrazide], the IC50 is 78 µM on mtDXPS (IC50 mtDXPS); 35 ± 10 µM against drDXPS [1] (at 0.3 μM ThDP); 19 ± 5 µM against drDXPS [1] (at 0.1 mM pyruvate); 86 ± 15 µM against drDXPS [1] (at 0.4 mM pyruvate); ~50 µM against drDXPS [1] (varying D/L-GAP concentrations); 51 µM on drDXPS [2] (IC50 drDXPS). Further, the mode of inhibition entry on drDXPS [1] was “ThDP- and pyruvate-competitive and non-competitive with respect to D/L-GAP”. Moreover, the “inhibition of drDXPS” value turned out to be 20% against drDXPS [1] (at 5 μM ThDP) and 32% against drDXPS [1] (at 0.6 mM pyruvate). The “inhib. (%) growth inhibition of E. coli TolC” value (shortened to “inhib. (%) growth inhibition”) with E. coli TolC (at 50 μM) is “no inhib. and n.i”.

For `Nc1ncc(/C=N/NC(=O)c2cc3c(s2)CCCC3)cn1` [Compound 3], in the data set with E. coli TolC (at 50 μM), the “inhib. (%) growth inhibition” value was “n.i”. Besides, at drDXPS [2], the inhibition at 120 µM is 15%.

Turning to `O=C(Cc1c[nH]c2ccccc12)N/N=C/c1ccc(C(F)(F)F)nc1` [Compound 4], the inhibition at 200 µM at mtDXPS is 25%. The “inhib. (%) drDXPS” value against drDXPS [2] (at 120 μM) is “n.i”.

Take `O=C(COc1ccc(Cl)cc1Cl)N/N=C/c1cc2c(s1)CCCC2` [Compound 6]: the inhibition at 120 µM at mtDXPS was found to be 46%. Besides, the “inhib. (%) growth inhibition” value in the data set with E. coli TolC (at 25 μM) is “n.i.^#”. The molecule also registered an IC50 against drDXPS [2] (IC50 drDXPS) of 101 µM.

Take `O=C(N/N=C/c1cc2c(s1)CCCC2)c1cccs1` [Compound 7]: in the data set with M. tuberculosis H37Rv, the “anti-TB activity, head-to-head comparative analysis” value was “most active” and the MIC is > 64 µM. Also, on mtDXPS, the inhibition at 120 µM stood at 65% and the inhibition at 200 µM is 65 ± 4%. Also, in data set [3], the aggregate formation result is “did not induce aggregate formation”. Further, in the data set with E. coli TolC, the inhibition at 50 µM worked out at 57%. Also, the inhibition at 120 µM at drDXPS [2] amounted to 37%.

Regarding `O=C(COc1ccc(Cl)cc1Cl)N/N=C/c1c[nH]c2ccccc12` [Compound 9], the inhibition at 200 µM at mtDXPS is 15%. In the data set on E. coli TolC, the MIC came to 19 ± 7 µM (≈ 6.88 µg/mL). The inhibition at 120 µM on drDXPS [2] came to 38%.

For the molecule `O=C(COc1ccc(Cl)cc1Cl)N/N=C/c1ccc(Br)cn1` [Compound 10], the inhibition at 200 µM at mtDXPS turned out to be 32%. Further, the inhibition at 50 µM in the data set with E. coli TolC came to 21%. In addition, on drDXPS [2], the inhibition at 120 µM came out at 14%.

On to `O=C(CCCOc1ccc(Cl)cc1Cl)N/N=C/c1ncc[nH]1` [Compound 12], for which the values for the inhibition at 120 µM on mtDXPS and at drDXPS [2] were 9% and 33%, respectively. Further, in the data set with E. coli TolC, the inhibition at 50 µM was determined as 30%.

For `O=C(CCCOc1ccc(Cl)cc1Cl)N/N=C/c1cccs1` [Compound 16], the “inhib. (%) mtDXPS” value against mtDXPS is on record as “n.i”. Also, the inhibition at 50 µM in the data set with E. coli TolC is 28%. In addition, on drDXPS [2], the inhibition at 120 µM came out at 4%.

Regarding `CCN(CC)c1ccc(/C=N/NC(=O)c2cccs2)c(O)c1` [Compound 21], the inhibition at 120 µM on mtDXPS was 11%; at drDXPS [2], 6%. In the data set on E. coli TolC, the MIC is 70 µM (≈ 22.2 µg/mL).

`O=C(CCCOc1ccc(Cl)cc1Cl)N/N=C/c1cccc2[nH]ncc12` [Compound 22]: the “inhib. (%) mtDXPS” value at mtDXPS is reported as “n.i”. Also, the “inhib. (%) growth inhibition” value in the data set on E. coli TolC (at 50 μM) is on record as “n.i”. Besides, at drDXPS [2], the inhibition at 120 µM worked out at 47%.

Take `O=C(CCCOc1ccc(Cl)cc1Cl)N/N=C/c1ccc(O)cc1F` [Compound 23]: the “inhib. (%) mtDXPS” value on mtDXPS is on record as “n.i”. In addition, the MIC in the data set on E. coli TolC stood at 45 µM (≈ 17.3 µg/mL). At drDXPS [2], the inhibition at 120 µM lay in the range of 40 to 62%.

`COc1cccc(/C=N/NC(=O)CCCOc2ccc(Cl)cc2Cl)c1O` [Compound 25]: at mtDXPS, the “inhib. (%) mtDXPS” value is on record as “n.i”. The MIC with E. coli TolC was 60 µM (≈ 23.8 µg/mL). On drDXPS [2], the inhibition at 120 µM was found to be 45%.

For `O=C(CCCOc1ccc(Cl)cc1Cl)N/N=C/c1ccc2cc[nH]c2c1` [Compound 26], the inhibition at 120 µM is 5% at mtDXPS and 58% at drDXPS [2]. Besides, the MIC in the data set with E. coli TolC was 14 ± 4 µM (≈ 5.46 µg/mL).

Regarding `O=C(N/N=C/c1ccc2cc[nH]c2c1)c1cc2c(s1)CCCC2` [Compound 35], in the data set with M. tuberculosis H37Rv, the “anti-TB activity, head-to-head comparative analysis” value is “most active”. The MIC was found to be 64 µM (≈ 20.7 µg/mL) in the data set on M. tuberculosis H37Rv and 16 ± 5 µM (≈ 5.17 µg/mL) in the data set on E. coli TolC. In addition, the inhibition at 120 µM on mtDXPS stood at 30%; on drDXPS [2] it was 62%. Also, the aggregate formation entry in data set [3] is “did not induce aggregate formation”.

For `CC(C)(C)OC(=O)N[C@@H](Cc1ccccc1)C(=O)N/N=C/c1ccc2cc[nH]c2c1` [Compound 37], the inhibition at 120 µM at mtDXPS turned out to be 3%; at drDXPS [2], 40%. The inhibition at 50 µM with E. coli TolC is 60%.

Consider `O=C(NCCc1ccc(C(F)(F)F)nc1)c1cc2c(s1)CCCC2` [Compound 38], for which the inhibition at 50 µM in the data set on E. coli TolC amounted to 19%. In addition, on drDXPS [2], the inhibition at 120 µM came out at 25.8%.

For `O=C(CCCOc1ccc(Cl)cc1Cl)NCCc1ccc(O)cc1F` [Compound 39], the “fold decrease in binding affinity for drDXPS” value on drDXPS [4] is reported as ~2 fold. Further, in the data set on E. coli TolC, the inhibition at 50 µM was determined as 83%. The inhibition at 120 µM at drDXPS [2] was 37%.

Regarding `FC(F)(F)c1ccc(-c2nnc(-c3cc4c(s3)CCCC4)o2)cn1` [Compound 40], on drDXPS [4] (SPR, steady-state fit), the “KD drDXPS” value is on record as “n.b”. Also, the “inhib. (%) growth inhibition” value in the data set on E. coli TolC (at 50 μM) is “no inhibition and n.i”.

As for `Oc1ccc(-c2nnc(CCCOc3ccc(Cl)cc3Cl)o2)c(F)c1` [Compound 41, 4-(5-(3-(2,4-dichlorophenoxy)propyl)-1,3,4-oxadiazol-2-yl)-3-fluorophenol], the inhibition at 50 µM in the data set on E. coli TolC was found to be 47%. Also, the “inhib. (%) drDXPS” value at drDXPS [2] (at 60 μM) came to 48 ± 3%. On drDXPS [2] (estimated IC50 drDXPS, estimated assuming full inhibition at high concentrations), the IC50 was 99 µM.

What is called IC50 is the point on the concentration scale where inhibition reaches its midpoint.
